Results from US10100027B2, “Benzofuran analogue as NS4B inhibitor” (priority 2014, dated 2018).

Tests used:
Type in all cases: cell-based
[1] = system: HCV genotype 1b (HCV-1b) replicon cells; experiment: HCV genotype 1b replicon cell assay (luciferase, Bright-Glo); settings: Hepatitis C virus, 72 h, HCV-1b (Con1) replicon cells, 3 days
Method: (§1) The EC50 and CC50 values of anti-HCV compounds were determined by HCV genotype 1a (HCV-1a) and 1b (HCV-1b) stable transfected replication (replicon) cells. The source of genotype 1a replicon is H77 clones containing K1691R, K2040R and S2204I adaptive mutations. The source of genotype 1b replicon is Con1 clones containing E1202G, T1280I and K1846T adaptive mutations.
(§2) HCV 1a (HCV-1a) and 1b (HCV-1b) gene subtype replicon system contains the related HCV gene subtype non-structural protein gene, G418 resistance gene NEO and luciferase gene, which results in that HCV related protein and luciferase can be stably expressed in cells. By detecting the level of expression of luciferase gene, the level of HCV replication can be determined. Therefore, the system is used as a model for screening the activity of anti-HCV compound in vitro.
(§3) The compound powder was dissolved in 100% DMSO. Then the compound was diluted 5 times with 6 points, and added into the cell plate with Echo liquid handler. Ensure the final concentration of DMSO was 0.5%. Each compound was tested in duplicate.
(§4) 4) Diluting cells to 8×10^4 cells/mL with the culture medium, adding the diluted cells into the compound-containing 96-well plate (Greiner, Cat. #655090) (100 μL/well, 8000 cells/well) with automatic liquid separator (Thermo Scientific). Then place into a 37° C., 5% CO2 incubator for 3 days. Cell control well: no compound, only containing 0.5% DMSO.
(§5) 6) Then adding luciferase substrate Bright-Glo, after incubation for 5 minutes, detecting the luciferase activity by microplate reader Envison (wavelength>700 nm); analyzing the anti-HCV inhibitory activity of the compounds according to luminescence data, which was used to calculate EC50 values.
(§6) The EC50 or CC50 values were obtained by nonlinear fitting regression on inhibition percentage (inh %) data with GraphPad Prism software.

[2] = system: HCV genotype 1a (HCV-1a) replicon cells; experiment: HCV genotype 1a replicon cell assay (luciferase, Bright-Glo); settings: Hepatitis C virus, 72 h, HCV-1a (H77) replicon cells, 3 days
Method: as §1, §2, §3, §4, §5, §6

[3] = Cytotoxicity in HCV replicon cells (Cell Titer-fluor)
Method: as §1, §3, §4
5) Adding fluorescence substrate Cell Titer-fluor to the cell well, after incubation for 30 minutes, detecting the signal by microplate reader Envison (Ex at 405 nm and read at 515 nm). The effect of the compounds on the cytotoxicity of HCV replicon cells was analyzed according to the fluorescence data, which was used to calculate the CC50 values.
as §6

Compound | EC50 [1] [nM] | EC50 [2] [nM] | CC50 at 3 days [3] [nM]
O=C(c1oc2c(C(F)(F)F)cc(C3CC3)cc2c1Cl)N1CCC(C(=O)N2CC(F)(F)C2)CC1 [YD_0349] | 100 to 1000 | 100 to 1000 | > 3000
O=C(c1oc2c(C(F)(F)F)cc(C3CC3)cc2c1Cl)N1CCN(C23CCC(CC2)CC3)C(=O)C1 [YD_0280] | 100 to 1000 | 100 to 1000 | > 3000
O=C(O)C1CCN1C(=O)C1CCN(C(=O)c2oc3c(C(F)(F)F)cc(C4CC4)cc3c2Cl)CC1 (stereo not drawn) [YD_0351] | 1000 to 5000 | 100 to 1000 | > 3000
O=C(c1oc2c(C(F)(F)F)cc(C3CC3)cc2c1Cl)N1CCN([C@H]2CC[C@H](O)CC2)C(=O)N1 [YD_0365] | 0.1 to 100 | 0.1 to 100 | > 3000
O=C1NN(C(=O)c2nc3c(C(F)(F)F)cc(C4CC4)cn3c2Cl)CCN1CC(F)F [YA_0358] | 100 to 1000 | 100 to 1000 | > 3000
O=C(Nc1ccc(Cl)cn1)C1CCN(C(=O)c2oc3c(C(F)(F)F)cc(C4CC4)cc3c2Cl)CC1 [YD_0327] | 1000 to 5000 | 100 to 1000 | > 3000
CN(C(=O)C1CCN(C(=O)c2oc3c(C(F)(F)F)cc(C4CC4)cc3c2Cl)CC1)c1ccc(F)cn1 [YD_0329] | 100 to 1000 | 100 to 1000 | > 3000
CC1CN(C(=O)C2CCN(C(=O)c3oc4c(C(F)(F)F)cc(C5CC5)cc4c3Cl)CC2)CCN1C (stereo not drawn) [YD_0325] | 1000 to 5000 | 100 to 1000 | > 3000
O=C(c1nc2c(C(F)(F)F)cc(C3CC3)cn2c1Cl)N1CCN(C2CC2)C(=O)N1 [YA_0362] | – | – | > 3000
CC1(C(=O)N2CC(O)C2)CCN(C(=O)c2oc3c(C(F)(F)F)cc(C4CC4)cc3c2Cl)CC1 [YD_0318] | 1000 to 5000 | 100 to 1000 | > 3000
O=C(c1oc2c(C(F)(F)F)cc(C3CC3)cc2c1Cl)N1CCC(C(=O)N2CCC2)CC1 [YD_0313] | 0.1 to 100 | 0.1 to 100 | > 3000
N#Cc1c(C(=O)N2CCN(N3CCOC3=O)CC2)oc2c(C(F)(F)F)cc(C3CC3)cc12 [YD_0250] | 0.1 to 100 | 0.1 to 100 | > 3000
Cc1nnc(C23CCC(NC(=O)c4oc5c(C(F)(F)F)cc(C(C)C)cc5c4Cl)(CC2)CC3)o1 [YD_0059] | 100 to 1000 | 0.1 to 100 | > 3000
CC1CN(C(=O)C2CCN(C(=O)c3oc4c(C(F)(F)F)cc(C5CC5)cc4c3Cl)CC2)C1 [YD_0350] | 100 to 1000 | 100 to 1000 | > 3000
O=C1CN(N2CCN(C(=O)c3oc4c(C(F)(F)F)cc(C5CC5)cc4c3Cl)CC2)C(=O)N1 [YD_0331] | 0.1 to 100 | 0.1 to 100 | > 3000
O=C1NN(C(=O)c2nc3c(C(F)(F)F)cc(C4CC4)cn3c2Cl)CCN1CC(F)(F)F [YA_0361] | – | – | > 3000
Cc1nnc(C23CCC(NC(=O)c4oc5c(C(F)(F)F)cc(C6CC6)cc5c4C)(CC2)CC3)o1 [YD_0058] | 100 to 1000 | – | > 3000
CCCc1cc(C(F)(F)F)c2oc(C(=O)NC34CCC(c5nnc(C)o5)(CC3)CC4)c(Cl)c2c1 [YD_0060] | 100 to 1000 | – | > 3000
CC(C)c1cc(C(F)(F)F)c2oc(C(=O)N3CCN(C4CCC(O)CC4)C(=O)C3)cc2c1 (stereo not drawn) [YD_0044] | 0.1 to 100 | – | > 3000
O=C(c1nc2c(C(F)(F)F)cc(C3CC3)cn2c1Cl)N1CCN([C@H]2C[C@H](O)C2)C(=O)N1 [YA_0359] | – | – | > 3000
Cc1nnc(C23CCC(NC(=O)c4cc5cc(C(C)C)cc(C(F)(F)F)c5o4)(CC2)CC3)o1 [YD_0019] | 100 to 1000 | – | > 3000
Cc1nnc(C23CCC(NC(=O)c4oc5c(C(F)(F)F)cc(C6CC6)cc5c4Br)(CC2)CC3)o1 [YD_0057] | 100 to 1000 | – | > 3000
Cc1nnc(C23CCC(NC(=O)c4oc5c(C(F)(F)F)cc(C6CC6)cc5c4Cl)(CC2)CC3)o1 [YD_0056] | 1000 to 5000 | – | > 3000
